The LD50 is the dose at which mortality reaches 50%.

We go through four compounds from US20080280983A1, “METHODS OF TREATING RETT SYNDROME” (CeNeRx BioPharma, priority 2007, published 2008).

Data set [1] has as its system bicucullin-induced convulsions. As to the kind of experiment: Bicucullin-induced convulsions in rats. The note with it: for protection against convulsions: percent compared with controls; for animals showing convulsions: 1 hour before bicuculline 4.5 mg/kg i.p., FIG. 4. Format: in vivo, rat. The procedure:
The method described by Curtis D. R. et al. (Brain Res. 34:301; 1971), herein incorporated by reference in its entirety, was used in modified form.
One hour later, bicuculline was administered by intraperitoneal route at a dose of 4.5 mg/kg dissolved in 10 ml/kg NSS. The number of animals manifesting any type of convulsion was then counted. The protection conferred by the treatments was then calculated as percent compared with the controls. The statistical significance of the differences was analyzed using the Yates chi-square test.

Data set [2] relates to pentetrazol-induced convulsions. The data set can be described thus: Pentetrazol-induced convulsions in rats. The settings on record: for animals manifesting convulsions: 30 minutes before pentetrazol 80 mg/kg i.p. Format: in vivo, rat. On the procedure:
The method proposed by Goodman L. S. et al. (J. Pharmacol. Test Ther. 108:168; 1958) was used. […] After 30 minutes, pentylene tetrazol (80 mg/kg i.p.) was administered. The number of animals from each group who manifested at least one convulsion during the 30 minutes after injection was counted. The differences between treatments were statistically analyzed using the chi-square/Fisher exact test.

Data set [3] concerns electroshock-induced convulsions. As to the kind of experiment: Electroshock-induced convulsions in rats. Format: in vivo, rat. The note with it: 30 minutes before shock. On the procedure: Male rats were studied using the method described by E. Chojnacka-Wojcik (Pol. J. Pharmacol. Pharm., 35:511-15, 1983), herein incorporated by reference in its entirety.
At 30 minutes after dosing, the animals were given a non-lethal electric shock (50 Hz, 50 mA, impulse train duration 0.2 s via corneal electrodes wetted in normal saline). […] The frequency of tonic and clonic convulsions among the treatment groups was analyzed using the Yates chi-square test .

Data set [4] has as its system strychnine-induced mortality. The note with it: for type of antagonism of strychnine from slope of dose/mortality line: 100 mg/Kg i.p. pretreatment. The procedure: Strychnine causes muscular convulsions and eventual death through asphyxia or sheer exhaustion in mammals.
Strychnine was administered i.p., dissolved in normal saline at a constant volume of 10 ml/kg. […] The number of deaths was recorded, starting 15 minutes after administration. Using data on deaths at each dose, the LD50, the 95% confidence intervals, and the line slope S were calculated.

In another data set the test system is mice. As to the kind of experiment: Rota-rod test. It counts as in vivo, mouse. The settings on record: 100 mg/Kg, versus untreated mice, FIG. 8A. An excerpt: Motor performance can be tested by measuring the length of time an animal can remain on a slowly rotating cylinder, as in the rota-rod test.
On the technique in general: The rotarod test checks motor coordination on a turning rod.

The next data set deals with CRH. As to the kind of experiment: CRH concentration in hypothalamus and cerebral cortex, foot-shock stress. It counts as in vivo, rat. An excerpt: As mentioned above, stress is known to be associated with release of CRH from the hypothalamus and activation of the HPA axis. This is paralleled by changes in the CRH content of different brain regions and alterations in the expression of messenger RNA (mRNA) for CRH.

Data set [5] concerns mouse. The settings on record: intravenous route; cited from earlier work.
Data set [6] concerns rats. As to the kind of experiment: Water maze test. It counts as in vivo, rat. The settings on record: 100 mg/Kg. On the procedure:
The water maze test is designed to test the effect of drugs on learning and performance in a task that is performed under a stressful condition. After several trials under control conditions, rats learn to exit the water maze with greater speed and with fewer errors. Performance in this test can be improved by drugs that either reduce stress and/or enhance learning (e.g. muscarinic agonists). On the contrary, drugs that impair learning (e.g. scopolamine) can worsen performance. […] This indicates improved learning and retention.

A further data set relates to aged mice. As to the kind of experiment: Taut thread test. Format: in vivo, mouse. On the procedure: In this test, aged mice are required to traverse a thread stretched between two points. Performance is measured by the time taken to reach the end and the number of resting positions adopted during the test.
The subject of the next data set is GABA receptors. The note with it: cited from earlier work.
Data set [7] relates to isoniazide-induced convulsions. As to the kind of experiment: Isoniazide-induced convulsions in rats. It counts as in vivo, rat. The note with it: 1 hour prior to isoniazide 100 mg/kg i.p. On the procedure: The method of Reilly R. H. et al. (JAMA 152(14):1317; 1953), herein incorporated by reference in its entirety, was used in modified form. […] Both the ED50 and ED84 were calculated. In the second part of the test, the ED84 was administered at different times (0.5-1.0-1.5-2.0-3.0 hours) prior to isoniazide administration for the purpose of determining the duration of action and the curve of kinetic activity. Female rats fasted for 17 hours were used for the test.

Data set [8] deals with mouse. The settings on record: cited from earlier work.
A further data set deals with rat. The settings on record: in vivo, ip; cited from earlier work.
Data set [9] has as its system rats. As to the kind of experiment: Open field behavior test. It counts as in vivo, rat. An excerpt: The open-field behavior test relies on the observation that rats exposed to a novel open environment display behaviors (exploratory ambulation, rearing, and dropping fecal boluses) that are thought to be naturally defensive and anticipatory of potential threats in the environment. Pharmacologic interventions that attenuate these behaviors may have utility in modifying pathologic fear or stress responses in a clinical context.

Another data set deals with CRH mRNA. The note with it: sustained treatment, hypothalamus and cerebral cortex of rats; cited from earlier work.

Like-named read-outs stand apart in the source and are kept apart here.

`CCC1(c2ccccc2)C(=O)NC(=O)NC1=O` [luminal sodium] returned a protection against convulsions in data set [1] (20 mg/kg orally) of 100%. Besides, the animals manifesting convulsions entry in data set [2] (10 mg/kg i.p.) was “None”. In addition, the “tonic and clonic convulsions in response to electric shock” value in data set [3] (luminal sodium 10 mg/Kg i.p.) is given as “completely blocked”.

With `Cc1ccccc1OCC(O)CO` (stereo not drawn) [mephenesine], the “type of antagonism of strychnine from slope of dose/mortality line” value in data set [4] (mice) is “competitive antagonism”. Besides, the “effect on LD50 of strychnine” value in [4] (mouse, in vivo) is “raised the LD50 of strychnine”.

Turning to `NCCCC(=O)O` [GABA], the protection against convulsions was 20% in data set [1] (high dose 200 mg/kg orally) and 10% in data set [1] (low dose 100 mg/kg orally). In addition, the anticonvulsant effect entry in data set [2] (50 or 100 mg/kg i.p. (either dose), pentetrazol 80 mg/kg i.p.) was “no anticonvulsant effect”.

`CC(C)(C)C(=O)NCCCC(=O)O` [pivagabine, 4-[(2,2-dimethyl-1-oxopropyl)amino]butanoic acid]: the results for the animals showing convulsions in [1] (100 mg/kg orally) and in [1] (200 mg/kg orally) were 4/10 and 1/10, respectively. In addition, in [1] (high dose 200 mg/kg orally), the protection against convulsions came to 90%. For the same compound, the “time remaining on the rotating cylinder” value in the data set with mice was “significantly longer”. Further, the “effect on CRH concentration in the cerebral cortex” value with CRH (pivagabine alone (no foot shock), cerebral cortex) was “no effect”. Further, the “reduction of CRH concentration in the hypothalamus” value with CRH (pivagabine alone (no foot shock), hypothalamus) is 52%. The “effects of foot-shock stress on CRH concentration” value in the data set on CRH (subchronic treatment, hypothalamus and cerebral cortex, FIGS. 12A and 12B) is recorded as “prevented the effects of foot-shock stress”. This compound came in with an animals manifesting convulsions in data set [2] (100 mg/kg i.p., p<0.01, FIG. 3) of 30%. The median lethal dose (LD50) with mouse [5] is 1750 mg/kg. Besides, the “performance in later sessions” value with rats [6] (days 4 and 5) is given as “tended to be superior to that of controls”. In the data set on rats [6] (rats), the “time to exit and number of errors made” value was “performed as well as the control group”. In the data set on aged mice (FIG. 9B), the “number of resting positions adopted” value was “significantly less”. In addition, the “time taken to traverse the thread” value in the data set with aged mice (versus control mice, FIG. 9A) is listed as “significantly faster”. In addition, the “binding to GABA receptors” value in the data set with GABA receptors is “does not appear to bind to GABA receptors”. The protection against seizures in data set [7] (highest dose (oral doses 25-50-100-200 mg/Kg), FIG. 5) is listed as 90%. In addition, in data set [7] (oral 25-50-100-200 mg/Kg), the “anticonvulsive effect, dose-effect relationship” value was “dose-related increase”. The “number of tonic convulsions in response to electric shock” value in data set [3] (100 or 200 mg/Kg i.p., FIG. 1) was “significantly reduced”. Further, the “anti-depressive and anxiolytic activity” value in the data set on mouse [8] was “a certain anti-depressive and anxiolytic activity”. In addition, in the data set on rat, the “dose up to which no toxic effects were observed” value is 1000 mg/kg. In addition, the “number of rearing movements” value with rats [9] (50 and 100 mg/Kg i.p., FIG. 6B) is listed as “significantly reduced”. The “ambulation, number of sectors explored per unit time” value in the data set with rats [9] (FIG. 6A) is reported as “significant decrease”. Moreover, in the data set with rats [9] (FIG. 6C), the “defecation, number of fecal boluses produced” value is “significant decrease”. Besides, the “effect on LD50 of strychnine” value in data set [4] (100 mg/Kg i.p. 30 minutes prior to strychnine i.p., mice, FIG. 2) is recorded as “raised the LD50 of strychnine”. In data set [4] (mice), the “type of antagonism of strychnine from slope of dose/mortality line” value was “nonspecific antagonism”. The “abundance of CRH mRNA” value with CRH mRNA is “increases the abundance of CRH mRNA”.
